Data reported in ChEMBL document CHEMBL1201862, “PubChem BioAssay data set” (2004).
Active and inactive are the calls of the source.

Tests used:
[1] = NIH-3T3 fibroblast cytotoxicity, dose response, cytotoxicity control, cell-based, fluorescence, Alamar Blue, secondary assay (AID 2327); format: functional;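 note: NIH-3T3 mouse fibroblasts cultured with fluconazole at 8 µg/mL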
[2] = microbe, parasite or virus in culture; format: functional; conditions: Mycobacterium tuberculosis
[3] = biological target: T1, Sphingosine 1-phosphate receptor 4 (Homo sapiens, UniProt O95977); assay: Fluorescence dose response cell-based high throughput screening assay for antagonists of the Sphingosine 1-Phosphate Receptor 4 (S1P4). [Related pubchem assays: 1524 (Confirmation in triplicates.), 1510 (Primary screen.)]; format: functional
T1 sequence (O95977 whole entry): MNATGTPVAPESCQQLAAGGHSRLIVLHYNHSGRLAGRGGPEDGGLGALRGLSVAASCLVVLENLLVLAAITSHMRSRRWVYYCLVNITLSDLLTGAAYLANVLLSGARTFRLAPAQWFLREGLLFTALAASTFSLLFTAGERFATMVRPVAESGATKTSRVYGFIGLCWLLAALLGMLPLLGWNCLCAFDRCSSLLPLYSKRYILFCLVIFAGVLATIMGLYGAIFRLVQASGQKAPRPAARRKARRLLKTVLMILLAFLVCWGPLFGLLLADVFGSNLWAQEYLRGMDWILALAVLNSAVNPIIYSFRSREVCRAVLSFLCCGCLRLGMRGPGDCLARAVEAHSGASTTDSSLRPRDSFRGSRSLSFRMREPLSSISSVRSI

[4] = biological target: Heat shock protein HSP 90-alpha (Homo sapiens, UniProt P07900); format: functional, organism-based
[5] = biological target: ATP-dependent molecular chaperone HSP82 (Candida albicans (strain WO-1) (Yeast), UniProt C4YTQ8); assay: steroid-induced GRE reporter decrease in yeast – S. cerevisiae, luminescence, Hsp90 inhibitor project, dose response (AID 2400); format: functional, cell-based;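 note: beta-galactosidase luminescence from glucocorticoid response element reporter as proxy for Hsp90 function; inhibitor potency where signal loss means Hsp90 inhibition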
[6] = fluconazole-exposed Candida albicans growth modulators – fluorescence, retest, confirmation (AID 2467); format: functional, cell-based
[7] = biological target: Neurotensin receptor type 1 (Homo sapiens, UniProt P30989); format: functional;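 note: Image-based confirmatory dose-response assay measuring agonist activity at NTR1; NTR1-expressing U2OS osteosarcoma cells imaged for beta-arrestin GFP spot formation; agonist potency where compounds increase beta-arrestin recruitment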
[8] = biological target: T2, Serine/threonine-protein phosphatase (Candida dubliniensis (strain CD36 / CBS 7987 / NCPF 3949 / NRRLY-17841) (Yeast), UniProt B9W6M3); assay: blockers of CaCl2-induced CDRE-lacZ signaling – S. cerevisiae, luminescence, secondary, dose response (AID 2388); format: functional, cell-based;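 note: yeast reporter cells carrying a calcineurin-responsive lacZ construct stimulated with calcium chloride; luminescent beta-galactosidase reporter signal in whole cells rather than isolated phosphatase activity; potency for inhibition where a drop in reporter signal means calcineurin blockade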
T2 sequence (B9W6M3 whole entry): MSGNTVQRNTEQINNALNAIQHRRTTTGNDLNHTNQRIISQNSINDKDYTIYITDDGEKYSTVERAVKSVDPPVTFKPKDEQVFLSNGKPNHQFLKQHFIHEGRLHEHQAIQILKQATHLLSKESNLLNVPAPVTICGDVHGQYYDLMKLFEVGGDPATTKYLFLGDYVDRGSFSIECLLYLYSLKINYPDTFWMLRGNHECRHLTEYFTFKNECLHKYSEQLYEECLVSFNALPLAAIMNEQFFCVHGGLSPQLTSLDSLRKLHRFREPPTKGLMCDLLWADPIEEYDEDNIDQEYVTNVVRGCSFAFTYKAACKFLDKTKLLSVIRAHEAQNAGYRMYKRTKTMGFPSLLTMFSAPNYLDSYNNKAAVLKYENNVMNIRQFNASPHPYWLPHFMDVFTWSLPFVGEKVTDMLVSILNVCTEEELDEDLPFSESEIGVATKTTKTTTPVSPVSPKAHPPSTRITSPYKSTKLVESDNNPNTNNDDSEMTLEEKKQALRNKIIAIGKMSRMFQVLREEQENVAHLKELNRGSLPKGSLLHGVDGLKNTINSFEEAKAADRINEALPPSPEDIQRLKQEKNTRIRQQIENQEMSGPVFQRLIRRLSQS

[9] = Fluorescence-based cell-based high throughput dose response assay for inhibitors of the interaction of nucleotide-binding oligomerization domain containing 2 (NOD2) and the receptor-interacting serine-threonine kinase 2 (RIPK2).; format: functional; conditions: Homo sapiens
[10] = biological target: Sphingosine 1-phosphate receptor 1 (Homo sapiens, UniProt P21453); format: functional;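 note: Tango beta-arrestin reporter U2OS cells stimulated with S1P near its EC80; inhibitor potency meaning antagonism of receptor activation by the natural agonist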
[11] = biological target: T2, Serine/threonine-protein phosphatase; assay: Fluorescence Cell-Based Secondary Assay to Identify Inhibitors of Calcineurin. [Related pubchem assays (depositor defined):AID1979, AID2007]; format: functional
[12] = Counterscreen for IDE inhibitors: Luminescence-based cell-based high throughput dose response assay to identify compounds that are cytotoxic to HEK cells. [Related pubchem assays: 434962 (Primary screen (IDE inhibitors in singlicate)), 449730 (Counterscreen (Cytotoxicity in triplicate)), 435028 (Confirmation (IDE inhibitors in triplicate)) …; format: functional; conditions: HEK293
[13] = biological target: NS3 (Hepatitis C virus, UniProt A3EZJ3); assay: PubChem AID 2173; design: species or system Hepacivirus hominis
[14] = biological target: T3, Heat shock factor protein 1 (Mus musculus, UniProt P38532); assay: enhancement of HSF1-driven luciferase signal – cell-based, NIH3T3, luminescence, dose retest, confirmation (AID 435004); format: functional;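 note: stress induced by proteasome inhibitor MG132 added 30 min after compound; luciferase reporter driven by HSF1 response element in NIH3T3 cells; actives raise luminescence as potentiators of the MG132 stress response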
T3 sequence (P38532 whole entry): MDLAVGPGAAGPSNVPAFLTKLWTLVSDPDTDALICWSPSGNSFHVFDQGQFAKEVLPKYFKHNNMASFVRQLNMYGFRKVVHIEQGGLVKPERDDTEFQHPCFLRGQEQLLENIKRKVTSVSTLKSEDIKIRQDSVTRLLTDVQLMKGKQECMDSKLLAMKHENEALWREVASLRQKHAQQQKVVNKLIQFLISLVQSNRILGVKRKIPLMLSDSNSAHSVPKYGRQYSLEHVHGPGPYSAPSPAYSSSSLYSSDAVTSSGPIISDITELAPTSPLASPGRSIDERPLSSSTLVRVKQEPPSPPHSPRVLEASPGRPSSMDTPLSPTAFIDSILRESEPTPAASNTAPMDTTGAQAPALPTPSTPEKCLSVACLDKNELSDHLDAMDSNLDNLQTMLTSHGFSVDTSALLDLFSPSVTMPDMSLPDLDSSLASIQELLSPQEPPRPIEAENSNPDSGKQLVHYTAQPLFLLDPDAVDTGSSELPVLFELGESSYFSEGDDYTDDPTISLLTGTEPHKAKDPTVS

[15] = biological target: Hepatocyte nuclear factor 4-alpha (Homo sapiens, UniProt P41235); format: functional, cell-based;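 note: biochemical luminescence-based dose-response counterscreen measuring inhibition of HNF4 dimerization, run alongside a screen for blockers of ABHD5–perilipin-5 interaction; split luciferase complementation of HNF4 fusion proteins in cell lysate measuring dimerization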
[16] = Luminescence Cell-Based Dose Retest to Confirm Inhibitors of Cancer Stem Cells. [Related pubchem assays (depositor defined):AID2717, AID2721]; format: functional; conditions: Homo sapiens
[17] = biological target: T4, Insulin-degrading enzyme (Homo sapiens, UniProt P14735); assay: Dose Response: Fluorescence polarization-based cell-based high throughput dose response assay for inhibitors of insulin-degrading enzyme (IDE). [Related pubchem assays: 434962 (Primary screen (IDE inhibitors in singlicate)), 449730 (Counterscreen (Cytotoxicity in triplicate)), 435028 (Confirmation (IDE inhibitors in triplicate)), 434984 (Summary …; format: functional
T4 sequence (P14735 whole entry): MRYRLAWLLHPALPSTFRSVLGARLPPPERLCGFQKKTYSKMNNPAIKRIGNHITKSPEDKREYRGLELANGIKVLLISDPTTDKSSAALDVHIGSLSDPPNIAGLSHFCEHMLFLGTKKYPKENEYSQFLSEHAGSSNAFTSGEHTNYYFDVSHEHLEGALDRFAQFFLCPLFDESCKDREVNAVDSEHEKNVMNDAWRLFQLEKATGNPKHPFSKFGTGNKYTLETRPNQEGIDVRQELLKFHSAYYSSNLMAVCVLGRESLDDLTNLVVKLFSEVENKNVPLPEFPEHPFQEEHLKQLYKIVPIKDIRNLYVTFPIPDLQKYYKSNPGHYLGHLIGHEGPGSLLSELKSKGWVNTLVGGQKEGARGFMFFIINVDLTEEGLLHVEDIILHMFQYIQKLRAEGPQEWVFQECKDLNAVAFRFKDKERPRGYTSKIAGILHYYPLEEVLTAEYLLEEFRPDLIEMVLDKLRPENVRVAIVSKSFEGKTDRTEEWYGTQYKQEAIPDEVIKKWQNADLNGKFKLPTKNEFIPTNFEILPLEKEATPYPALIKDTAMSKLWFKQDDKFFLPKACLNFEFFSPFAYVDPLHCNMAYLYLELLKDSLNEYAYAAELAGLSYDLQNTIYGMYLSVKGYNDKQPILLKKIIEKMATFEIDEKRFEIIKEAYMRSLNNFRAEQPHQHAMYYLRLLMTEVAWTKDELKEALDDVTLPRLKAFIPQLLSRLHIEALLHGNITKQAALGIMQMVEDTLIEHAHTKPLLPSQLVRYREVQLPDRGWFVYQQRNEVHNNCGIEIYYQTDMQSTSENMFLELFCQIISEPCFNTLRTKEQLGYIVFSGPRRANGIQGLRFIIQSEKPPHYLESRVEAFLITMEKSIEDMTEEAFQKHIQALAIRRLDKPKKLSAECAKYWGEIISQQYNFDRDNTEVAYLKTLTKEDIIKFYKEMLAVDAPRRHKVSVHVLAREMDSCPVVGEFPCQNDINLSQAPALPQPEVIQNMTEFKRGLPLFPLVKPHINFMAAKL

[18] = activation of miR-122 Renilla sensor silencing – cell-based, Huh7 psiCHECK-miR122, Renilla luciferase, cherry-picked, dose response (AID 651956); format: functional;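 note: huh7 hepatoma cells stably carrying a psiCHECK-2 miR-122 sensor plasmid; renilla luciferase signal reporting endogenous miR-122 activity after 48 h compound exposure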
[19] = OVCAR-3 cell viability loss – plate reader, dry powder samples, PAX8 inhibitor project, dose response (AID 743044); format: functional, cell-based
[20] = toxicity toward immortalized ovarian surface epithelium – cell-based, plate reader, dry powder samples, cytotoxicity control for PAX8 inhibitor project, dose response (AID 743045); format: functional
[21] = OVCAR8 cell viability loss – plate reader, dry powder samples, PAX8 project, dose response (AID 743197); format: functional, cell-based; conditions: OVCAR-8
[22] = biological target: Paired box protein Pax-8 (Homo sapiens, UniProt Q06710); assay: PAX8 transcriptional activity inhibition in RMG-I – RMG-I cells, luciferase, cherry-pick, dose response (AID 687027); format: functional, cell-based;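 note: luciferase reporter driven by Pax8 target thyroperoxidase promoter measured by SteadyGlo luminescence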
[23] = A2780 cell killing – plate reader, dry powder samples, cytotoxicity control, dose response (AID 743046); format: functional, cell-based
[24] = viability loss in LCL cells – cell-based, plate reader, dry powder, set 2, cytotoxicity control, dose response (AID 624367); format: functional
[25] = IGROV1 cell killing – plate reader, dry powder samples, PAX8 inhibitor project, dose response (AID 743043); format: functional, cell-based; conditions: IGROV-1

Chain of ATP-dependent molecular chaperone HSP82 (C4YTQ8 whole entry): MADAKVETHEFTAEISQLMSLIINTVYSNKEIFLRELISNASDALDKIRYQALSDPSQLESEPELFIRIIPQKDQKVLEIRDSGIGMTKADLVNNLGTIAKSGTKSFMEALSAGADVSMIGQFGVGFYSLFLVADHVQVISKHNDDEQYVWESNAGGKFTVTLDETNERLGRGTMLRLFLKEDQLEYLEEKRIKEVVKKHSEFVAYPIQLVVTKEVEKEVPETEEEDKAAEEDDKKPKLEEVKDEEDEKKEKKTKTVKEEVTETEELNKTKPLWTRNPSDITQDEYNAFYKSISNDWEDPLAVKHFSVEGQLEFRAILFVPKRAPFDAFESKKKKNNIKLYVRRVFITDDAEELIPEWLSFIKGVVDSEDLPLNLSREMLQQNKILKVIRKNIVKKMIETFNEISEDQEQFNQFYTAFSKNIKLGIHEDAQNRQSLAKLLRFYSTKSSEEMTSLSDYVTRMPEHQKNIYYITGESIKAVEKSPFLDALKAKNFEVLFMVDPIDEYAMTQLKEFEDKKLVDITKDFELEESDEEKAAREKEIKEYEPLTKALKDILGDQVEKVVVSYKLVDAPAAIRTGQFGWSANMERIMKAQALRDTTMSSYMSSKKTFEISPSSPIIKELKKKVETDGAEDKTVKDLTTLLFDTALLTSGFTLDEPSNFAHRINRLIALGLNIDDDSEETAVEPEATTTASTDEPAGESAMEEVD
Chain of Neurotensin receptor type 1 (P30989 whole entry): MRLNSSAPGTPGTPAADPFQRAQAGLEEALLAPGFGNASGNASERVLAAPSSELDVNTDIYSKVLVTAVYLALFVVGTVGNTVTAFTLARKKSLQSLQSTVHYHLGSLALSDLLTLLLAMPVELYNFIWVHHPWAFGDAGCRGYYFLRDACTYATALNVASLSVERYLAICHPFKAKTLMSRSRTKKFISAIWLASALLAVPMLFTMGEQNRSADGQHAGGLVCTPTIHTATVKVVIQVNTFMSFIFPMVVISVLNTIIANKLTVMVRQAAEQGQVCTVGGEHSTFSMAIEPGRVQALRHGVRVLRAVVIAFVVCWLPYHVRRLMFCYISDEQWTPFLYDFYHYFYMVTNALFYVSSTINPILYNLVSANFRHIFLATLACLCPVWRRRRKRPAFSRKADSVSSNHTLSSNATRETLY
Chain of NS3 (A3EZJ3 whole entry): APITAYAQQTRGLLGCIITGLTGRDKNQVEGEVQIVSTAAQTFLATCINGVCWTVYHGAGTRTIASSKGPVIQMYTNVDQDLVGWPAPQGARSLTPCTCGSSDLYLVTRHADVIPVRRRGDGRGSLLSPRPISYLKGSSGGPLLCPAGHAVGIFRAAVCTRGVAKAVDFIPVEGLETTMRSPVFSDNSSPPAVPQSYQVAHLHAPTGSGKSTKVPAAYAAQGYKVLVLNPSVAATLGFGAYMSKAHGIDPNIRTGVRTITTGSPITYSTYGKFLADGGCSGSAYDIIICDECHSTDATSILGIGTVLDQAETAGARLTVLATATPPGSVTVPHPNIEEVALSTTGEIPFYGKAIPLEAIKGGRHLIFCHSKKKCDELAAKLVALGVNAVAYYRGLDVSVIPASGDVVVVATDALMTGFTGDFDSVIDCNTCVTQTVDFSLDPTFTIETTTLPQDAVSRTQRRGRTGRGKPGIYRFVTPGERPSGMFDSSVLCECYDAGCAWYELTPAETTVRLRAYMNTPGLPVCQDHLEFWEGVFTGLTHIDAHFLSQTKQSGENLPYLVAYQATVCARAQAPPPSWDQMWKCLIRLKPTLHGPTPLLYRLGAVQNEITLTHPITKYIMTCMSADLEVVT
Chain of Paired box protein Pax-8 (Q06710 whole entry): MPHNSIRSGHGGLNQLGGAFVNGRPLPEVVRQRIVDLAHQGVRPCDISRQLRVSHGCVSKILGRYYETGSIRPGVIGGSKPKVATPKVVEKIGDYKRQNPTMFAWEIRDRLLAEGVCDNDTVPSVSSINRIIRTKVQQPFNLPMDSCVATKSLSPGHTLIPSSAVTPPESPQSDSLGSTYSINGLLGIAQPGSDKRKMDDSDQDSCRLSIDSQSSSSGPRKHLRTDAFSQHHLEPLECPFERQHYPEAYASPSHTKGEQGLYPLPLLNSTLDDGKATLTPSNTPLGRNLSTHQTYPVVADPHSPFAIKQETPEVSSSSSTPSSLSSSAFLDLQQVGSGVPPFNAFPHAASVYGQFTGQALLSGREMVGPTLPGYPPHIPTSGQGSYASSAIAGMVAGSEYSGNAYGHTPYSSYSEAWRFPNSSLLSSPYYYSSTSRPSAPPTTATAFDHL
Chain of Hepatocyte nuclear factor 4-alpha (P41235 whole entry, the tested form may be a part): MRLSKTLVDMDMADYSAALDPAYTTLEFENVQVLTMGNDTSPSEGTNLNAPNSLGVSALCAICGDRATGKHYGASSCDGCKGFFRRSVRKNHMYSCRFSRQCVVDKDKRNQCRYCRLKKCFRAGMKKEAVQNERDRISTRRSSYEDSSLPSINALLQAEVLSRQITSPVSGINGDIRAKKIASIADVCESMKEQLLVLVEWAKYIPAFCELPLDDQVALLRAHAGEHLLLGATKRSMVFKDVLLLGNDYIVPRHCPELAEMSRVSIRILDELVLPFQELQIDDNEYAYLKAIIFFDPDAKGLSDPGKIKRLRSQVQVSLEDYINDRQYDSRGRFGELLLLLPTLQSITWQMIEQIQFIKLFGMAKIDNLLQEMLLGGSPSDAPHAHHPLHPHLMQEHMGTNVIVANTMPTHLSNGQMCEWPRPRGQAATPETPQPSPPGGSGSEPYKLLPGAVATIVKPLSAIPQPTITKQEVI
Chain of Sphingosine 1-phosphate receptor 1 (P21453 whole entry): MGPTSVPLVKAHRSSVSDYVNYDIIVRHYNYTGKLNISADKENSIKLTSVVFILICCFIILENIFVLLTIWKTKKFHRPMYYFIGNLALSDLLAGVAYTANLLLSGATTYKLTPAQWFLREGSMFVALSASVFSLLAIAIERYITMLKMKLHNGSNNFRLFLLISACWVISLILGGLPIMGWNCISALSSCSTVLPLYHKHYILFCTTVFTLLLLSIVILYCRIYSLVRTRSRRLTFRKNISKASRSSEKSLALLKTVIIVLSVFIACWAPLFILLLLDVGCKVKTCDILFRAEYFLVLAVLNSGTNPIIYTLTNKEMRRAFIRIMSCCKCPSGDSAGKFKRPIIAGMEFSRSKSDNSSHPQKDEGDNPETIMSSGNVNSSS

CCc1ccc2c(c1)/C(=C/C(=O)c1cccs1)C(=O)N2
EC50 [1]: > 150 µM (inactive)
CC50 [2]: 7.23 µM (active)
IC50 [3]: 1.46 µM (active)
AC50 [4]: 4.18 µM (active)
EC50 [5]: 1.25 µM (active)
EC50 [6]: 6.49 µM (active)
EC50 [7]: 17.7 µM (active)
EC50 [8]: > 180 µM (inactive)
IC50 [9]: 4.53 µM (active)
IC50 [10]: 20.9 µM (not active)
EC50 [11]: 5.99 µM (active)

Cc1ccc(C(=O)/C=C/c2cc(Br)cc(Br)c2O)o1
IC50 [12]: 19.8 µM (not active)
IC50 [13]: 9.14 µM (active)
EC50 [14]: 16.8 µM (active)
IC50 [15]: 11 µM (inactive)
AC50 [16]: 3.09 µM (active)
IC50 [17]: 21 µM (not active)

CC(C)C#Cc1ccc2c(c1)O[C@H](CN(C)C(=O)c1ccncc1)[C@H](C)CN([C@H](C)CO)S2(=O)=O
AC50 [18]: 3.04 µM (active)

O=C(C[C@@H]1C[C@H]2c3cc(NS(=O)(=O)c4ccc(F)cc4)ccc3O[C@H]2[C@@H](CO)O1)NCc1ccc(Oc2ccccc2)cc1
AC50 [19]: 21.5 µM (active)
AC50 [20]: 26.7 µM (active)
AC50 [21]: 43.5 µM (active)
AC50 [22]: 7.32 µM (active)
AC50 [23]: 45.6 µM (active)
AbsAC35 [24]: 42.5 µM
AC50 [25]: 44.3 µM (active)
